The values that follow come from patent US9447044B2, “Thioaryl derivatives as GPR120 agonists” (LG LIFE SCIENCES LTD., priority 2012, dated 2016).

For the first assay, the target named is T1, hGPR120 (Homo sapiens, UniProt Q5NUL3).
T1 construct: expressed in transfected cells; host or cells: CHO-K1
T1 sequence (Q5NUL3 1-361): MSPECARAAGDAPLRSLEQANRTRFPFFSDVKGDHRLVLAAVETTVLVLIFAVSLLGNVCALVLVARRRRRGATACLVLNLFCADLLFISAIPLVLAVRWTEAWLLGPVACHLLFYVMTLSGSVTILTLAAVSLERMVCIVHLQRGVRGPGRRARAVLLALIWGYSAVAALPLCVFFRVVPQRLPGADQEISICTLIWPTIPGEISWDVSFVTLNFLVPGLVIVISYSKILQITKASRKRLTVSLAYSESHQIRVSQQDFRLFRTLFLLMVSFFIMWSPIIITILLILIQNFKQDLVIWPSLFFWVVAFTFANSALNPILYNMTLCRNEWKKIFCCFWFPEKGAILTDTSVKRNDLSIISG
Put plainly: Measurement of activity of GPR120 agonist (cell-based assay), calcium fluorescence. The settings on record: CHO-K1 cells expressing Ga16 and hGPR120; Calcium 5 dye fluorescence; activity class. As to the method:
CHO-K1 cells expressing Ga16 and hGPR120 were dispensed into each well of a 96-well plate (3×10^4 cells/100 μl/well) and then incubated in 5% CO2, 37° C. incubator for 18 hours. Each well was treated with 100 μl of Calcium 5 dye (Molecular Devices) solution including 2% DMSO and then incubated in 5% CO2, 37° C. incubator for 1 hour. Serially diluted GPR120 agonists were prepared to a final concentration of 0.5% DMSO in a 96-well plate. Each well was treated with 50 μl of the agonist compounds using Plexstation II, and then fluorescence was measured at Ex 485 nm, Em 525 nm.
Fluorescence increased by the serially diluted GPR120 agonists is calculated as a relative percent (%) value based on the fluorescence represented by the treatment of 0.1% DMSO only. […] The calculation of measurement was carried out by using statistical software (Prizm).
Activity is denoted based on the following criteria: A=>20 μM, B=[…], C=2˜0.2 μM, D=<0.2 μM
As for `CCCSc1ncccc1COc1ccc(C2CC2C(=O)O)cc1F` (single isomer, unassigned) [Example 119, 2-[3-fluoro-4-(2-propylsulfanyl-pyridin-3-ylmethoxy)-phenyl]-cyclopropane carboxylic acid], the EC50 is under 200 nM.

In the case of `O=C(O)C1CC1c1ccc(OCc2cccnc2SC2CCC2)c(Cl)c1` (single isomer, unassigned) [Example 124, 2-[3-chloro-4-(2-cyclobutylsulfanyl-pyridin-3-ylmethoxy)-phenyl]-cyclopropane carboxylic acid], the EC50 fell in the range of 200 to 2000 nM.

Regarding `O=C(O)C1CC1c1ccc(OCc2cccnc2SC2CCC2)c(Cl)c1` (single isomer, unassigned) [Example 125, 2-[3-chloro-4-(2-cyclobutylsulfanyl-pyridin-3-ylmethoxy)-phenyl]-cyclopropane carboxylic acid], the EC50 was under 200 nM.

Turning to `O=C(O)C1CC1c1ccc(OCc2cccnc2SCC2CC2)c(F)c1` (single isomer, unassigned) [Example 129, 2-[4-(2-cyclopropylmethylsulfanyl-pyridin-3-ylmethoxy)-3-fluoro-phenyl]-cyclopropane carboxylic acid], the EC50 was in the range of 200 to 2000 nM.

For the compound `O=C(O)C1CC1c1ccc(OCc2cccnc2SC2CCCC2)c(F)c1` (single isomer, unassigned) [Example 130, 2-[4-(2-cyclopentylsulfanyl-pyridin-3-ylmethoxy)-3-fluoro-phenyl]-cyclopropane carboxylic acid], the EC50 was 200 to 2000 nM.

For `CC(C)Sc1cccc(COc2ccc(C3CC3C(=O)O)cc2F)n1` (single isomer, unassigned) [Example 131, 2-[3-fluoro-4-(6-isopropylsulfanyl-pyridin-2-ylmethoxy)-phenyl]-cyclopropane carboxylic acid], the EC50 was 200 to 2000 nM.

Turning to `O=C(O)C1CC1c1ccc(OCc2cccnc2SC2CCC2)c(F)c1` (single isomer, unassigned) [Example 133, 2-[4-(2-cyclobutylsulfanyl-pyridin-3-ylmethoxy)-3-fluoro-phenyl]-cyclopropane carboxylic acid], the EC50 fell in the range of 200 to 2000 nM.

For the compound `O=C(O)C1CC1c1ccc(OCc2cccc(SC3CCCC3)n2)c(F)c1` (single isomer, unassigned) [Example 134, 2-[4-(6-cyclopentylsulfanyl-pyridin-2-ylmethoxy)-3-fluoro-phenyl]-cyclopropane carboxylic acid], the EC50 is under 200 nM.

Consider `O=C(O)C1CC1c1cc(F)c(OCc2cccnc2SCC2CC2)c(F)c1` (single isomer, unassigned) [Example 136, 2-[4-(2-cyclopropylmethylsulfanyl-pyridin-3-ylmethoxy)-3,5-difluoro-phenyl]-cyclopropane carboxylic acid], for which the concentration for a half-maximal effect (EC50) was in the range of 200 to 2000 nM.

Take `O=C(O)C1CC1c1cc(F)c(OCc2cccnc2SCC2CC2)c(F)c1` (single isomer, unassigned) [Example 137, 2-[4-(2-cyclopropylmethylsulfanyl-pyridin-3-ylmethoxy)-3,5-difluoro-phenyl]-cyclopropane carboxylic acid]: the EC50 is under 200 nM.

`CCCSc1ncccc1COc1ccc(C2CC2C(=O)O)cc1F` (single isomer, unassigned) [Example 163, 2-[3-fluoro-4-(2-propylsulfanyl-pyridin-3-ylmethoxy)-phenyl]-cyclopropane carboxylic acid]: the EC50 was under 200 nM.

On to `O=C(O)C1CC1c1ccc(OCc2cccnc2SC2CCCC2)c(F)c1` (single isomer, unassigned) [Example 164, 2-[4-(2-cyclopentylsulfanyl-pyridin-3-ylmethoxy)-3-fluoro-phenyl]-cyclopropane carboxylic acid], for which the EC50 is under 200 nM.

`O=C(O)C1CC1c1ccc(OCc2cccnc2SCC2CC2)c(F)c1` (single isomer, unassigned) [Example 165, 2-[4-(2-cyclopropylmethylsulfanyl-pyridin-3-ylmethoxy)-3-fluoro-phenyl]-cyclopropane carboxylic acid]: the EC50 was under 200 nM.

As to `CC(C)Sc1cccc(COc2ccc(C3CC3C(=O)O)cc2F)n1` (single isomer, unassigned) [Example 166, 2-[3-fluoro-4-(6-isopropylsulfanyl-pyridin-2-ylmethoxy)-phenyl]-cyclopropane carboxylic acid], the EC50 is under 200 nM.

For `O=C(O)C1CC1c1ccc(OCc2cccc(SC3CCCC3)n2)c(F)c1` (single isomer, unassigned) [Example 168, 2-[4-(6-cyclopentylsulfanyl-pyridin-2-ylmethoxy)-3-fluoro-phenyl]-cyclopropane carboxylic acid], the EC50 is under 200 nM.

In the case of `O=C(O)C1CC1c1ccc(OCc2cccnc2SC2CCC2)c(F)c1` (single isomer, unassigned) [Example 169, 2-[4-(2-cyclobutylsulfanyl-pyridin-3-ylmethoxy)-3-fluoro-phenyl]-cyclopropane carboxylic acid], the EC50 was under 200 nM.

`CC(C)Sc1ncccc1COc1c(F)cc(CCC(=O)O)cc1F` [Example 1, 3-[3,5-difluoro-4-(2-isopropylsulfanyl-pyridin-3-ylmethoxy)-phenyl]-propionic acid]: the EC50 was under 200 nM.

Consider `CC(C)Sc1ncccc1COc1ccc(CCC(=O)O)cc1` [Example 2, 3-[4-(2-isopropylsulfanyl-pyridin-3-ylmethoxy)-phenyl]-propionic acid], for which the concentration for a half-maximal effect (EC50) is under 200 nM.

Take `Cc1cnc(SC(C)C)c(COc2ccc(CC(C)C(=O)O)cc2)c1` (centres unmarked) [Example 3, 3-[4-(2-isopropylsulfanyl-5-methyl-pyridin-3-ylmethoxy)-phenyl]-2-methyl-propionic acid]: the EC50 lay within 200 to 2000 nM.

Turning to `CC(C)Sc1ncccc1COc1ccc(CC(C)C(=O)O)cc1` (centres unmarked) [Example 4, 3-[4-(2-isopropylsulfanyl-pyridin-3-ylmethoxy)-phenyl]-2-methyl-propionic acid], the EC50 was in the range of 200 to 2000 nM.

Consider `Cc1cnc(SC(C)C)c(COc2ccc(CCC(=O)O)cc2)c1` [Example 5, 3-[4-(2-isopropylsulfanyl-5-methyl-pyridin-3-ylmethoxy)-phenyl]-propionic acid], for which the EC50 is under 200 nM.

Consider `CC(C)Sc1ncccc1COc1ccc(CCC(=O)O)cc1F` [Example 6, 3-[3-fluoro-4-(2-isopropylsulfanyl-pyridin-3-ylmethoxy)-phenyl]-propionic acid], for which the EC50 is under 200 nM.

With `CC(C)Sc1ncccc1COc1ccc(CCC(=O)O)c(F)c1` [Example 7, 3-[2-fluoro-4-(2-isopropylsulfanyl-pyridin-3-ylmethoxy)-phenyl]-propionic acid], the EC50 was under 200 nM.

On to `Cc1ccc(COc2c(F)cc(CCC(=O)O)cc2F)c(SC(C)C)n1` [Example 9, 3-[3,5-difluoro-4-(2-isopropylsulfanyl-6-methyl-pyridin-3-ylmethoxy)-phenyl]-propionic acid], for which the EC50 is under 200 nM.

For the compound `CCSc1ncccc1COc1c(F)cc(CCC(=O)O)cc1F` [Example 10, 3-[4-(2-ethylsulfanyl-pyridin-3-ylmethoxy)-3,5-difluoro-phenyl]-propionic acid], the EC50 was under 200 nM.

As for `CC(C)CSc1ncccc1COc1c(F)cc(CCC(=O)O)cc1F` [Example 11, 3-[3,5-difluoro-4-(2-isobutylsulfanyl-pyridin-3-ylmethoxy)-phenyl]-propionic acid], the EC50 was under 200 nM.

In the case of `CC(C)Sc1ncccc1COc1ccc(CCCC(=O)O)cc1` [Example 13, 4-[4-(2-isopropylsulfanyl-pyridin-3-ylmethoxy)-phenyl]-butyric acid], the EC50 is under 200 nM.

For `CCCSc1ncccc1COc1c(F)cc(CCC(=O)O)cc1F` [Example 14, 3-[3,5-difluoro-4-(2-propylsulfanyl-pyridin-3-ylmethoxy)-phenyl]-propionic acid], the EC50 is under 200 nM.

Consider `O=C(O)CCc1cc(F)c(OCc2cccnc2Sc2ccccc2)c(F)c1` [Example 15, 3-[3,5-difluoro-4-(2-phenylsulfanyl-pyridin-3-ylmethoxy)-phenyl]-propionic acid], for which the EC50 is 200 to 2000 nM.

Still in this assay, the particulars now being: CHO-K1 cells expressing Ga16 and hGPR120; Calcium 5 dye fluorescence; numeric value.
`O=C(O)C1CC1c1ccc(OCc2cccc(SC3CCC3)n2)c(F)c1` (single isomer, unassigned) [Example 135, 2-[4-(6-cyclobutylsulfanyl-pyridin-2-ylmethoxy)-3-fluoro-phenyl]-cyclopropane carboxylic acid]: the EC50 worked out at 27 nM.

Regarding `O=C(O)C1CC1c1ccc(OCc2cccc(SC3CCC3)n2)c(F)c1` (single isomer, unassigned) [Example 167, 2-[4-(6-cyclobutylsulfanyl-pyridin-2-ylmethoxy)-3-fluoro-phenyl]-cyclopropane carboxylic acid], the EC50 turned out to be 6 nM.

For the compound `O=C(O)CCc1cc(F)c(OCc2cccnc2SC2CCCC2)c(F)c1` [Example 12, 3-[4-(2-cyclopentylsulfanyl-pyridin-3-ylmethoxy)-3,5-difluoro-phenyl]-propionic acid], the EC50 worked out at 58 nM.
